From patent US20050159599A1, “Cyclic compound, process for producing the same, and pest control agent” (priority 2002, published 2005)
Read-outs that look alike come from different tables or passages of the source.

How the values were obtained:
Assay type in all cases: in vivo
Plutella xylostella [1] = assay: Insecticidal effect for Plutella xylostella by immersion treatment of host crop root (Test Example 3); details: for pest or weed control at 25 ppm: Plutella xylostella, 120 h, read-out: rate of dead pests (%)
Experimental: Insecticidal Effect for Plutella xylostella by Immersion Treatment of Host Crop Root
Roots of 4-leave stage cabbage was washed with tap water to remove soil, and then immersed in a pesticidal solution which was prepared by dissolving 5 mg of test compound (represented by the compound Nos. in the above Examples) in 0.5 ml of acetone containing Tween 20 (trade name) and then diluting it to the prescribed concentration (25 ppm) with ion-exchange water, and which was filled in a light-shielded Erlenmeyer flask (100 ml). On the fifth day after immersion of root, the root was cut off, and the stem and leaves were put into an ice cream cup (180 ml). Ten second-instar larvae of Plutella xylostella were set free therein, and the cup was left in a temperature-controlled breeding room (24° C.). On the fifth day after, the number of surviving Plutella xylostella was examined. The rate of dead pests was calculated by the following formula. rate of dead pests (%)=(number of dead pests/number of test pests)×100

Spodoptera litura [2] = assay: Insecticidal effect for Spodoptera litura by spraying treatment to host crop (Test Example 2); details: 100 ppm, sprayed on soybean, third-instar larvae of Spodoptera litura, fifth day after; for pest or weed control at 100 ppm: 120 h, read-out: rate of dead pests (%)
In short: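 Soybean plants with fully developed primary leaves sprayed to runoff with 100 ppm compound (acetone/Tween 20, sticker water). Dried leaves given to ten third-instar larvae at 25° C.; survivors counted on day 5, mortality as dead/tested × 100.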

Plutella xylostella [3] = assay: Insecticidal effect for Plutella xylostella by immersion treatment of host crop (Test Example 1); details: cabbage leaf dipped, second-instar larvae of Plutella xylostella, fifth day after; for rate of dead pests (%): 100 ppm; for pest or weed control at 100 ppm: foliar, 120 h, read-out: rate of dead pests (%)
Experimental: Insecticidal Effect for Plutella xylostella by Immersion Treatment of Host Crop One true leaf of 7 to 8-leave stage cabbage was cut off and dipped in a pesticidal solution for a few seconds, which was prepared by dissolving 5 mg of test compound (represented by the compound Nos. in the above Examples) in 0.5 ml of acetone containing Tween 20 (trade name) and then diluting it to the prescribed concentration (100 ppm) with Dain (trade name, sticker) water diluted 5000-fold. After drying the pesticidal solution, the leaf was put into an ice cream cup (180 ml), and ten second-instar larvae of Plutella xylostella were set free therein. The cup was left in a temperature-controlled breeding room (24° C.). On the fifth day after, the number of surviving Plutella xylostella was examined. The rate of dead pests was calculated by the following formula. rate of dead pests (%)=(number of dead pests/number of test pests)×100

Spodoptera litura [4] = assay: Insecticidal effect for Spodoptera litura by immersion treatment of host crop root (Test Example 4); details: 25 ppm, soybean root immersion 5 days, second-instar larvae of Spodoptera litura, fifth day after; for pest or weed control at 25 ppm: 120 h, read-out: rate of dead pests (%)
Experimental: Insecticidal Effect for Spodoptera litura by Immersion Treatment of Host Crop Root Roots of primary leaves developing stage soybean was washed with tap water to remove soil, and then immersed in a pesticidal solution which was prepared by dissolving 5 mg of test compound (represented by the compound Nos. in the above Examples) in 0.5 ml of acetone containing Tween 20 ([…]) with ion-exchange water, and which was filled in a light-shielded Erlenmeyer flask (100 ml). On the fifth day after immersion of root, two primary leaves were cut off, and the leaves were put into an ice cream cup (180 ml). Ten second-instar larvae of Spodoptera litura were set free therein, and the cup was left in a temperature-controlled breeding room (25° C.). On the fifth day after, the number of surviving Spodoptera litura was examined. The rate of dead pests was calculated by the following formula. rate of dead pests (%)=(number of dead pests/number of test pests)×100

[5] = 25 ppm, cabbage root immersed 5 days, ten second-instar larvae on stem and leaves, counted on the fifth day, 24° C.

Compound | rate of dead pests (%) (Plutella xylostella [1]; [5]) | rate of dead pests (%) (Spodoptera litura [2]) | rate of dead pests (%) (Plutella xylostella [3]) | rate of dead pests (%) (Spodoptera litura [4]) | also measured
O=C(c1c(F)cccc1Cl)N1COCN(c2ccc([S+]([O-])C(F)(F)F)cc2F)C1=O (centres unmarked) [I-222] | 100 | 100 | 100 | 100 | 
CC(=O)N1CN(C(=O)c2c(F)cccc2F)C(=O)N(c2ccc([S+]([O-])C(F)F)cc2F)C1 (centres unmarked) [III-153] | 100 | 100 | 100 | 100 | 
O=C(c1c(F)cccc1F)N1COCN(c2cc(F)c([S+]([O-])C(F)(F)F)cc2F)C1=O (centres unmarked) [I-111] | 100 | 100 |  |  | 
O=C(c1c(F)cccc1F)N1COCN(c2c(F)cc([S+]([O-])C(F)(F)F)cc2F)C1=O (centres unmarked) [I-105] | 100 | 100 |  | 100 | 
O=C(c1c(F)cccc1F)N1CN=CN(c2cc(Cl)c(F)c(Cl)c2F)C1=O [V-4, 1-(3,5-dichloro-2,4-difluorophenyl)-3-(2,6-difluorobenzoyl)-3,4-dihydro-1,3,5-triazin-2(1H)-one] |  |  |  |  | pest or weed control at 25 ppm (Plutella xylostella [1]; [5]): 95%; pest or weed control at 100 ppm (Spodoptera litura [2]): 100%; pest or weed control at 100 ppm (Plutella xylostella [3]): 100%
O=C(c1c(F)cccc1Cl)N1COCN(c2ccc(SC(F)F)cc2F)C1=O [I-218] |  | 100 | 100 | 100 | 
O=C(c1c(F)cccc1F)N1CNCN(c2ccc([S+]([O-])C(F)(F)C(F)Cl)cc2F)C1=O (centres unmarked) [III-91] | 100 | 100 |  | 95 | 
O=C(c1c(F)cccc1F)N1COCN(c2ccc([S+]([O-])C(F)(F)C(F)Cl)cc2Cl)C1=O (centres unmarked) [I-14] | 100 | 100 |  | 100 | 
O=C(c1c(F)cccc1F)N1COCN(c2ccc([S+]([O-])C(F)(F)C(F)Cl)cc2)C1=O (centres unmarked) [I-11] | 100 | 100 | 100 | 100 | 
Cc1c(N2COCN(C(=O)c3c(F)cccc3F)C2=O)ccc([S+]([O-])C(F)(F)F)c1Cl (centres unmarked) [I-123] | 100 | 100 |  |  | 
O=C(c1c(F)cccc1F)N1COCN(c2ccc(SC(F)F)cc2F)C1=O [I-41, 3-(2,6-difluorobenzoyl)-5-[4-(difluoromethylthio)-2-fluorophenyl]tetrahydro-4H-1,3,5-oxadiazin-4-one] |  |  |  |  | pest or weed control at 25 ppm (Plutella xylostella [1]; [5]): 100%; pest or weed control at 100 ppm (Spodoptera litura [2]): 100%; pest or weed control at 100 ppm (Plutella xylostella [3]): 100%; pest or weed control at 25 ppm (Spodoptera litura [4]): 100%
O=C(c1c(F)cccc1F)N1COCN(c2ccc([S+]([O-])C(F)(F)F)c(Cl)c2)C1=O (centres unmarked) [I-78] | 90 | 100 |  | 100 | 
COC(=O)C(=O)N1CN(C(=O)c2c(F)cccc2F)C(=O)N(c2ccc(SC(F)(F)C(F)Cl)cc2F)C1 (centres unmarked) [III-79] |  | 100 | 100 | 100 | 
O=C(c1c(F)cccc1Cl)N1COCN(c2ccc([S+]([O-])C(F)(F)C(F)(F)C(F)(F)F)cc2F)C1=O (centres unmarked) [I-321] | 95 | 100 |  | 100 | 
CSc1ccc(N2COCN(C(=O)c3c(F)cccc3Cl)C2=O)c(F)c1 [I-205] | 90 | 100 | 100 | 100 | 
O=C(c1c(F)cccc1F)N1COCN(c2ccc([S+]([O-])C(F)(F)C(F)F)cc2)C1=O (centres unmarked) [I-20] | 100 | 100 | 100 | 95 | 

Compound | rate of dead pests (%) (Plutella xylostella [1]; [5]) | rate of dead pests (%) (Spodoptera litura [2]) | rate of dead pests (%) (Plutella xylostella [3]) | rate of dead pests (%) (Spodoptera litura [4]) | also measured
CS(=O)(=O)N1CN(C(=O)c2c(F)cccc2F)C(=O)N(c2ccc([S+]([O-])C(F)F)cc2F)C1 (centres unmarked) [III-154] | 100 | 100 |  | 100 | 
O=C(c1c(F)cccc1F)N1COCN(c2ccc(S(=O)(=O)C(F)F)cc2F)C1=O [I-43, 3-(2,6-difluorobenzoyl)-5-[4-(difluoromethylsulfonyl)-2-fluorophenyl]tetrahydro-4H-1,3,5-oxadiazin-4-one] |  |  |  |  | pest or weed control at 100 ppm (Spodoptera litura [2]): 100%; pest or weed control at 100 ppm (Plutella xylostella [3]): 100%; pest or weed control at 25 ppm (Spodoptera litura [4]): 100%
O=C(c1c(F)cccc1F)N1COCN(c2ccc(SCC(F)(F)F)cc2F)C1=O [I-34] | 100 | 100 | 100 |  | 
O=C(c1c(F)cccc1F)N1COCN(c2ccc([S+]([O-])C(F)(F)C(F)(F)F)cc2F)C1=O (centres unmarked) [I-129, 3-(2,6-difluorobenzoyl)-5-[2-fluoro-4-(1,1,2,2,2-pentafluoroethylsulfinyl)phenyl]tetrahydro-4H-1,3,5-oxadiazin-4-one] |  |  |  |  | pest or weed control at 25 ppm (Plutella xylostella [1]; [5]): 100%; pest or weed control at 100 ppm (Spodoptera litura [2]): 100%; pest or weed control at 25 ppm (Spodoptera litura [4]): 100%
O=C(c1c(F)cccc1F)N1COCN(c2ccc([S+]([O-])C(F)(F)F)cc2Cl)C1=O (centres unmarked) [I-75] | 95 | 100 |  | 100 | 
Cc1cc(N2COCN(C(=O)c3c(F)cccc3Cl)C2=O)ccc1[S+]([O-])C(F)(F)F (centres unmarked) [I-249] | 95 | 100 |  |  | 
O=C(c1c(F)cccc1F)N1COCN(c2ccc([S+]([O-])C(F)(F)C(F)F)cc2Cl)C1=O (centres unmarked) [I-17] |  | 100 | 100 | 100 | 
Cc1cc([S+]([O-])C(F)(F)F)ccc1N1COCN(C(=O)c2c(F)cccc2F)C1=O (centres unmarked) [I-69] | 100 | 100 |  |  | 
Cc1c(N2COCN(C(=O)c3c(F)cccc3F)C2=O)ccc([S+]([O-])C(F)(F)F)c1C (centres unmarked) [I-84] | 100 | 100 |  |  | 
Cc1cc(N2COCN(C(=O)c3c(F)cccc3F)C2=O)ccc1[S+]([O-])C(F)(F)F (centres unmarked) [I-72] | 100 | 100 |  |  | 
O=C(c1c(F)cccc1F)N1COCN(c2c(F)cc([S+]([O-])C(F)(F)F)cc2Cl)C1=O (centres unmarked) [I-102] | 100 | 100 |  |  | 
O=C(c1c(F)cccc1F)N1COCN(c2ccc([S+]([O-])C(F)(F)C(F)(F)C(F)(F)F)cc2F)C1=O (centres unmarked) [I-144, 3-(2,6-difluorobenzoyl)-5-[2-fluoro-4-(1,1,2,2,3,3,3-heptafluoro-1-propylsulfinyl)phenyl]tetrahydro-4H-1,3,5-oxadiazin-4-one] |  |  |  |  | pest or weed control at 25 ppm (Plutella xylostella [1]; in Brassica oleracea): 95%
Cc1cc(N2COCN(C(=O)c3c(F)cccc3F)C2=O)ccc1SC(F)(F)F [I-71] | 95 | 100 |  | 90 | 
O=C(c1c(F)cccc1F)N1COCN(c2ccc([S+]([O-])C(F)(F)F)c(F)c2)C1=O (centres unmarked) [I-81] | 100 | 100 | 100 |  | 
O=C(c1c(F)cccc1F)N1COCN(c2ccc([S+]([O-])C(F)(F)C(F)F)cc2F)C1=O (centres unmarked) [I-23] | 95 | 100 |  | 100 | 
Cc1cc([S+]([O-])C(F)(F)F)c(F)cc1N1COCN(C(=O)c2c(F)cccc2F)C1=O (centres unmarked) [I-126] | 100 | 100 |  |  | 
